The target of data set [1] is interaction between chemokine and a chemokine receptor (Homo sapiens, UniProt P51681). As to the kind of experiment: antagonistic activity against the interaction between chemokine and a chemokine receptor (method described in WO 01/40227). The format is biochemical. Conditions: compared with the amorphous substance produced by the method of WO 02/074770.
In another data set the test system is rats. Conditions: rat, in vivo, 2000 mg/kg. On the procedure:
Thus, the inventive compound is determined as sufficiently safe for medical use.

Chain of interaction between chemokine and a chemokine receptor (P51681 whole entry): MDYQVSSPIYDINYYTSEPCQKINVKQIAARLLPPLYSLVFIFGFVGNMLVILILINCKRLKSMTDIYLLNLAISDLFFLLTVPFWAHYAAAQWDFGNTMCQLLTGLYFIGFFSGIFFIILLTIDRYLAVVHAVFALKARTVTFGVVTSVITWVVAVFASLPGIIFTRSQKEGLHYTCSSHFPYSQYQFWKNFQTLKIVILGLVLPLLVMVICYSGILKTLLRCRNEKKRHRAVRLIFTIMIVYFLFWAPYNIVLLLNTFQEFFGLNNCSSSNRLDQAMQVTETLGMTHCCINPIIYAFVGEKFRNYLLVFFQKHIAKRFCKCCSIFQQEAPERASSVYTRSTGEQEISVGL

For `CCCCN1C(=O)[C@@H]([C@H](O)C2CCCCC2)NC(=O)C12CCN(Cc1ccc(Oc3ccc(C(=O)O)cc3)cc1)CC2.Cl` [Crystal A, (3R)-1-butyl-2,5-dioxo-3-[(1R)-1-hydroxy-1-cyclohexylmethyl]-9-[4-(4-carboxyphenyloxy)phenylmethyl]-1,4,9-triazaspiro[5.5]undecane Hydrochloride], in data set [1], the “antagonistic activity against the interaction between chemokine and a chemokine receptor” value was “almost the same level as that of the amorphous substance”. Moreover, the toxicity result in the data set with rats is “never showed distinct toxicity”.

For the origin of these results see patent US7361758B2, “Crystals of triazaspiro[5.5]undecane derivative” (Ono Pharmaceutical Co., Ltd., priority 2002, dated 2008).
